Test system: 633275-114-R-J1-PDC complex spheroids, viability
Assay: Anticancer human tumor 633275-114-R-J1-PDC patient-derived endometrial adenocarcinoma cell line growth inhibition [GQUAD]
Conditions: for IC50: curve of first compound; for viability, T/C: stronger effect = lower value
Method in brief: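 Tumor cells were grown as complex spheroids with HUVEC endothelial cells and mesenchymal stem cells as stroma. G-quadruplex stabilizers were combined with targeted agents over half-log dilutions from near the clinical Cmax, or from 10 microM.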

[1] = second compound 0.0316 µM, first compound 0.0316 µM
[2] = second compound 0.0316 µM, first compound 0.1 µM
[3] = second compound 0.0316 µM, first compound 0.316 µM
[4] = second compound 0.0316 µM, first compound 1 µM
[5] = second compound 0.0316 µM, first compound 3.16 µM
[6] = second compound 0.0316 µM, first compound 10 µM
[7] = second compound 0.1 µM, first compound 0.0316 µM
[8] = second compound 0.1 µM, first compound 0.1 µM
[9] = second compound 0.1 µM, first compound 0.316 µM
[10] = second compound 0.1 µM, first compound 1 µM
[11] = second compound 0.1 µM, first compound 3.16 µM
[12] = second compound 0.1 µM, first compound 10 µM
[13] = second compound 0.316 µM, first compound 0.0316 µM
[14] = second compound 0.316 µM, first compound 0.1 µM
[15] = second compound 0.316 µM, first compound 0.316 µM
[16] = second compound 0.316 µM, first compound 1 µM
[17] = second compound 0.316 µM, first compound 3.16 µM
[18] = second compound 0.316 µM, first compound 10 µM
[19] = second compound 1 µM, first compound 0.0316 µM
[20] = second compound 1 µM, first compound 0.1 µM
[21] = second compound 1 µM, first compound 0.316 µM
[22] = second compound 1 µM, first compound 1 µM
[23] = second compound 1 µM, first compound 3.16 µM
[24] = second compound 1 µM, first compound 10 µM
[25] = second compound 3.16 µM, first compound 0.0316 µM
[26] = second compound 3.16 µM, first compound 0.1 µM
[27] = second compound 3.16 µM, first compound 0.316 µM
[28] = second compound 3.16 µM, first compound 1 µM
[29] = second compound 3.16 µM, first compound 3.16 µM
[30] = second compound 3.16 µM, first compound 10 µM
[31] = second compound 10 µM, first compound 0.0316 µM
[32] = second compound 10 µM, first compound 0.1 µM
[33] = second compound 10 µM, first compound 0.316 µM
[34] = second compound 10 µM, first compound 1 µM
[35] = second compound 10 µM, first compound 3.16 µM
[36] = second compound 10 µM, first compound 10 µM
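Also: spheroids exposed to the agents for seven days.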
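For viability, T/C in this document: percent of DMSO vehicle control viability which is 100%.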

COc1cccc2c1C(=O)c1c(O)c3c(c(O)c1C2=O)CC(O)(C(=O)CO)CC3OC1CC(N)C(O)C(C)O1 (stereo unspecified) + Cc1[nH]c2ccc(F)cc2c1-c1nc2c3cccnc3c3ncccc3c2[nH]1
IC50 (second compound 0.0316 µM): 89.7 nM | IC50 (second compound 0.1 µM): 94.6 nM | IC50 (second compound 0.316 µM): 82.3 nM | IC50 (second compound 1 µM): 73 nM | IC50 (second compound 3.16 µM): 45.4 nM | IC50 (second compound 10 µM): 39.7 nM | viability, T/C [1]: 64.4% | viability, T/C [2]: 47.5% | viability, T/C [3]: 32% | viability, T/C [4]: 21.5% | viability, T/C [5]: 2.36% | viability, T/C [6]: 1.69% | viability, T/C [7]: 65.3% | viability, T/C [8]: 46.2% | viability, T/C [9]: 35.3% | viability, T/C [10]: 20.6% | viability, T/C [11]: 1.91% | viability, T/C [12]: 1.66% | viability, T/C [13]: 62.5% | viability, T/C [14]: 46% | viability, T/C [15]: 32.3% | viability, T/C [16]: 20.3% | viability, T/C [17]: 2.16% | viability, T/C [18]: 1.4% | viability, T/C [19]: 62.2% | viability, T/C [20]: 44% | viability, T/C [21]: 30.6% | viability, T/C [22]: 20.6% | viability, T/C [23]: 1.92% | viability, T/C [24]: 1.57% | viability, T/C [25]: 54.4% | viability, T/C [26]: 40.2% | viability, T/C [27]: 30.9% | viability, T/C [28]: 18.6% | viability, T/C [29]: 2.97% | viability, T/C [30]: 1.41% | viability, T/C [31]: 52.9% | viability, T/C [32]: 39.7% | viability, T/C [33]: 30.1% | viability, T/C [34]: 19.4% | viability, T/C [35]: 2.39% | viability, T/C [36]: 1.46%

Nc1ccn(C2OC(CO)C(O)C2(F)F)c(=O)n1 (stereo unspecified) + Cc1[nH]c2ccc(F)cc2c1-c1nc2c3cccnc3c3ncccc3c2[nH]1
IC50 (second compound 0.0316 µM): < 31.6 nM | IC50 (second compound 0.1 µM): < 31.6 nM | IC50 (second compound 0.316 µM): < 31.6 nM | IC50 (second compound 1 µM): < 31.6 nM | IC50 (second compound 3.16 µM): < 31.6 nM | IC50 (second compound 10 µM): < 31.6 nM | viability, T/C [1]: 29.7% | viability, T/C [2]: 25.6% | viability, T/C [3]: 25.9% | viability, T/C [4]: 26.4% | viability, T/C [5]: 22.9% | viability, T/C [6]: 24.4% | viability, T/C [7]: 33.2% | viability, T/C [8]: 24.3% | viability, T/C [9]: 26.4% | viability, T/C [10]: 27.3% | viability, T/C [11]: 24.8% | viability, T/C [12]: 20.9% | viability, T/C [13]: 31.2% | viability, T/C [14]: 28.8% | viability, T/C [15]: 26.1% | viability, T/C [16]: 24.2% | viability, T/C [17]: 27.1% | viability, T/C [18]: 19.9% | viability, T/C [19]: 30.9% | viability, T/C [20]: 25.6% | viability, T/C [21]: 26% | viability, T/C [22]: 25.9% | viability, T/C [23]: 24% | viability, T/C [24]: 20.1% | viability, T/C [25]: 26.1% | viability, T/C [26]: 24.4% | viability, T/C [27]: 22.6% | viability, T/C [28]: 23.4% | viability, T/C [29]: 25.7% | viability, T/C [30]: 17.9% | viability, T/C [31]: 26.8% | viability, T/C [32]: 24.5% | viability, T/C [33]: 23.8% | viability, T/C [34]: 24.1% | viability, T/C [35]: 22.5% | viability, T/C [36]: 18.8%

O=c1[nH]cc(F)c(=O)[nH]1 + Cc1[nH]c2ccc(F)cc2c1-c1nc2c3cccnc3c3ncccc3c2[nH]1
IC50 (second compound 0.0316 µM): > 10000 nM | IC50 (second compound 0.1 µM): > 10000 nM | IC50 (second compound 0.316 µM): > 10000 nM | IC50 (second compound 1 µM): > 10000 nM | IC50 (second compound 3.16 µM): > 10000 nM | IC50 (second compound 10 µM): > 10000 nM | viability, T/C [1]: 97.7% | viability, T/C [2]: 107% | viability, T/C [3]: 107% | viability, T/C [4]: 95.4% | viability, T/C [5]: 86% | viability, T/C [6]: 71.8% | viability, T/C [7]: 108% | viability, T/C [8]: 89.7% | viability, T/C [9]: 96.4% | viability, T/C [10]: 98.8% | viability, T/C [11]: 91.4% | viability, T/C [12]: 70.6% | viability, T/C [13]: 95.2% | viability, T/C [14]: 95.6% | viability, T/C [15]: 94% | viability, T/C [16]: 90.6% | viability, T/C [17]: 93.4% | viability, T/C [18]: 71.4% | viability, T/C [19]: 91.3% | viability, T/C [20]: 101% | viability, T/C [21]: 90.6% | viability, T/C [22]: 88.4% | viability, T/C [23]: 84.5% | viability, T/C [24]: 73.3% | viability, T/C [25]: 77.1% | viability, T/C [26]: 71.7% | viability, T/C [27]: 75.5% | viability, T/C [28]: 73.2% | viability, T/C [29]: 71.2% | viability, T/C [30]: 56.9% | viability, T/C [31]: 70.5% | viability, T/C [32]: 73% | viability, T/C [33]: 71.9% | viability, T/C [34]: 73% | viability, T/C [35]: 71.8% | viability, T/C [36]: 55.9%

Source: PubChem BioAssay AID2060505 (Molecular Pharmacology Branch, DTP, NCI, 2025)
